The values below come from patent US20090305954A1, “HISTIDINE-CONTAINING DIASTEREOMERIC PEPTIDES AND USES THEREOF” (Yeda Research and Development Co. Ltd., priority 2005, published 2009).

Converted amounts (≈) assume the structure as drawn. Square brackets hold non-standard residues; d marks the D form. Peptide text beside a SMILES is read from it.

The nature of data set [1]: XTT proliferation (cytotoxicity) assay, normal fibroblasts. It counts as cell-based, mouse. As to conditions: mouse, NIH-3T3 normal mouse fibroblasts; NIH3T3, pH 6, 24 h; read-out: Lethal Concentration (LC50). The method, then: (§1) The CL1 human prostate carcinoma (PC) cell line is an androgen-independent (AI) subclone of LNCaP cell line, which was generated by culturing androgen-dependent (AD) LNCaP cells in charcoal-stripped, […], as described (Patel et al. 2000). 22RV1 human PC cells are AI sub-clones of the AD prostatic adenocarcinoma CWR22 xenograft (Sramkoski et al. 1999). CL1 and 22RV1 (ATCC, USA) were grown in RPMI-1640 supplemented with 10% FCS (Biological Industries, Beit Haemek, Israel). PC3 and DU145 are androgen-insensitive (AI) (non-responsive), invasive human prostate cancer cell lines. NIH-3T3 mouse fibroblast cell lines (ATCC, USA) were grown in DMEM supplemented with 10% BS. Murine Lewis lung carcinoma (LLC) cell lines were also grown in DMEM medium supplemented with 10% fetal calf serum and antibiotics under the same conditions as above.
(§2) The anticancer activity of the diastereomers 1, 5 and 11-16, 36-39, 42 and 44 was examined against human CL1 prostate cancer, murine LLC (Lewis lung carcinoma), DU 145 and PC3 cell lines. The cell selectivity of the diastereomeric peptides was also studied by examining their effect on NIH-3T3 normal mouse fibroblasts cell line.
(§3) A 96-well plate (Falcon) was used for the XTT proliferation assay. Cancer cells were grown for 24 hours (day 1) in RPMI-1640 medium ([…] cells/100 μl for LLC, CL1, 22RVI, DU 145 and PC3, respectively) supplemented with 10% fetal calf serum and antibiotics, at 37° C., in humidified atmosphere at 5% CO2 and 95% air, resulting in growth medium pH of 7.4. NIH-3T3 fibroblast cells (1×10^4 cells/100 μl) were grown in DMEM medium supplemented with 10% bovine calf serum and antibiotics under the same conditions as described above for the cancerous cells. Wells in the last two rows served as blanks (medium only, for measuring the background color of the medium) and 100% survival controls (cells and medium only without treatment), respectively.
(§4) In day 2, the peptides were dissolved in sterile PBS to a concentration of 200 μM (or 500 μM). The medium in the assay wells was replaced with 100 μl serum free medium. For the assays at pH 6, the medium was initially concentrated (×5 or ×10) and then diluted with double distilled water and addition of sodium carbonate. Before reaching the correct dilution, the medium was adjusted to pH 6 and then more water was added to reach the final dilution. The cells were grown in physiological pH, and the acidic pH was used only during the 24 hours incubation with the peptides. A sign for the correct acidity was a light yellow color of the medium. In line A of the plate, 160 μl of serum free medium was added, if the initial peptide concentration was 500 μM.
(§5) Peptide solutions, 100 μl (or 40 μl) were added to each assay well in line A, such that the final concentration of the peptide was […] and the volume 200 μl. The medium in the wells was mixed with multichannel pipette 5 times and 100 μl of it were transferred to the next row of wells (line B), to give a peptide concentration of 50 μM. The double dilution of the peptides continued downstream the plate in the same manner. The plates were then incubated for 24 h.
(§6) In day 3, XTT reaction solution was prepared by adding to 100 μl aliquots of activation solution (sodium 3′-[1-(phenyl-aminocarbonyl)-3,4-tetrazolium]-bis(4-methoxy-6-nitro) benzene sulfonic acid hydrate and N-methyl dibenzopyrazine methyl sulfate; mixed in a proportion of 50:1) (protected from light and kept in −20° C.), the substrate. 50 μl of XTT reaction solution were added to each well and the plates were incubated for 2 hours (37° C. and 5% CO2+95% air. In cases the incubation was not enough for the creation of the color, it was extended for up to 24 hours). The optical density was read at wavelength of 450 nm in an ELISA plate reader. Cell viability was determined relative to the control and final results were recorded. The results were confirmed using replications in at least three independent experiments. […]

For data set [2], the system named is NIH-3T3 normal mouse fibroblasts cell line. The data set is described as above. It counts as cell-based. The conditions noted are these: NIH3T3, pH 7.4, 24 h. As for the experimental part:
as §1, §2, §3, §4, §5, §6

Data set [3] concerns PC3 human prostate cancer cell line. The data set is described as follows: XTT proliferation (cytotoxicity) assay, PC3. As to conditions: PC3, pH 7.4, 24 h. It counts as cell-based. As for the experimental part: as §1, §2
A 96-well plate (Falcon) was used for the XTT proliferation assay. Cancer cells were grown for 24 hours (day 1) in RPMI-1640 medium (5×10^3, 7×10^3, 1×10^4 and 7×10^3 cells/100 μl for LLC, CL1, 22RVI, DU 145 and PC3, respectively) supplemented with 10% fetal calf serum and antibiotics, at 37° C., in humidified atmosphere at 5% CO2 and 95% air, resulting in growth medium pH of 7.4. […]
In day 3, XTT reaction solution was prepared by adding to 100 μl aliquots of activation solution (sodium 3′-[1-(phenyl-aminocarbonyl)-3,4-tetrazolium]-bis(4-methoxy-6-nitro) benzene sulfonic acid hydrate and N-methyl dibenzopyrazine methyl sulfate; mixed in a proportion of 50:1) (protected from light and kept in −20° C.), the substrate. […] The optical density was read at wavelength of 450 nm in an ELISA plate reader. Cell viability was determined relative to the control and final results were recorded. […]
On the technique in general: Formazan colour is commonly taken as a measure of viable cells.

In data set [4] the test system is 22RV1 human PC cells. As to the kind of experiment: XTT proliferation (cytotoxicity) assay, 22RV1. It counts as cell-based. As for the experimental part:
as §1, §3, §4, §5
In day 3, XTT reaction solution was prepared by adding to 100 μl aliquots of activation solution (sodium 3′-[1-(phenyl-aminocarbonyl)-3,4-tetrazolium]-bis(4-methoxy-6-nitro) benzene sulfonic acid hydrate and N-methyl dibenzopyrazine methyl sulfate; mixed in a proportion of 50:1) (protected from light and kept in −20° C.), the substrate. 50 μl of XTT reaction solution were added to each well and the plates were incubated for 2 hours (37° C. and 5% CO2+95% air. In cases the incubation was not enough for the creation of the color, it was extended for up to 24 hours). The optical density was read at wavelength of 450 nm in an ELISA plate reader. Cell viability was determined relative to the control and final results were recorded. The results were confirmed using replications in at least three independent experiments. The LC50 for each peptide was obtained from the curve of cell viability versus concentration of peptide and taken from the concentration at which cell viability was 50%. The data shown in Table 1 are for only one experiment, but representative of all replications.

The subject of data set [5] is DU145 human prostate cancer cell line. As to the kind of experiment: XTT proliferation (cytotoxicity) assay, DU145. It is filed as cell-based. The method, then:
as §1, §2, §3, §4, §5, §6

In data set [6] the test system is CL1 human prostate carcinoma cell line. The data set is described as follows: XTT proliferation (cytotoxicity) assay, CL1. It counts as cell-based. As for the experimental part: as §1, §2, §3, §4, §5, §6
Data set [7] concerns Murine Lewis lung carcinoma (LLC) cell line. As to the kind of experiment: XTT proliferation (cytotoxicity) assay, LLC. It counts as cell-based. As for the experimental part: as §1, §2, §3, §4, §5, §6
The subject of data set [8] is pepsin, trypsin, and elastase. The data set is described as follows: Resistance to proteolytic digestion (reverse-phase HPLC). It counts as in vitro ADME. The conditions noted are these: after 2 hr, 140 μM peptide, 25 μM protease, 37° C. The method, then: In order to reach their target, the diastereomers have to withstand proteolytic digestion of proteases, which may occur after their administration and during the time until they reach the target site. The susceptibility of the peptides 13 and 14 to proteolytic digestion by pepsin (from porcine stomach mucosa, Sigma), trypsin (from bovine pancreas, Sigma), and elastase (from human leukocytes, Sigma) was assessed by reverse-phase HPLC. As a negative control, the all L-amino acid analog peptides were used. Equal amounts of the peptides were dissolved in PBS (35 mM phosphate buffer/0.15 M NaCl, pH 7.3) at a final concentration of 140 μM, to which 25 μM of protease were added. […] After the addition of the appropriate protease inhibitor to stop the reaction, aliquots were injected to C18 column and the amounts of the intact peptides 13 and 14 and their all L analogs were evaluated using their absorbance at 215 nm.

As for `CC(C)C[C@H](NC(=O)[C@H](CC(C)C)NC(=O)[C@@H](CCCCN)NC(=O)[C@H](CC(C)C)NC(=O)[C@H](CC(C)C)NC(=O)[C@H](Cc1c[nH]cn1)NC(=O)[C@@H](CCCCN)NC(=O)[C@@H](CC(C)C)NC(=O)[C@H](CC(C)C)NC(=O)[C@@H](CCCCN)NC(=O)[C@H](Cc1c[nH]cn1)NC(=O)[C@H](CC(C)C)NC(=O)[C@@H](CC(C)C)NC(=O)[C@H](Cc1c[nH]cn1)NC(=O)[C@@H](N)CC(C)C)C(N)=O` [Peptide 14] (H-LH[dL]LH[dK]L[dL][dK]HLL[dK]LL-NH2), the CC50 at 24 h in data set [1] was determined as 25 µg/mL (≈ 13.7 µM). Also, the “Lethal Concentration (LC50)” value came out at 100 µg/mL in data set [2]; 18.7 µg/mL in data set [3]; 12.5 µg/mL in data set [4] (22RV1, pH 6, 24 h); 25 µg/mL in data set [4] (22RV1, pH 7.4, 24 h); 9.3 µg/mL in data set [5] (DU145, pH 6, 24 h); 12.5 µg/mL in data set [5] (DU145, pH 7.4, 24 h). The “Lethal Concentration (LC50)” value in data set [6] (CL1, pH 6, 24 h) came out at 12.5 µg/mL; in data set [6] (CL1, pH 7.4, 24 h), 12.5 µg/mL; in data set [7] (pH 6, 24 h) it was 25 µg/mL; in data set [7] (pH 7.4, 24 h), 50 µg/mL. Also, in data set [6] (CL1 and 22RVI, pH 7.4), the “activity compared with peptide 1” value was “half as active”. Moreover, the “active concentration lower than against NIH-3T3” value is listed as 8 fold in data set [6] (CL1 vs NIH-3T3, pH 7.4) and “at least two-fold lower” in data set [6] (CL1 vs NIH-3T3 at the same pH). This molecule displayed a proteases digestion in data set [8] of approximately 50%.
